≈ marks a conversion by molar mass, not a printed value.

Experiment [1] has as its system wild-type M. tuberculosis. In words: microbe, parasite or virus in culture. The format is cell-based. Conditions: Mycobacterium tuberculosis.
In experiment [2] the test system is wild-type M. tuberculosis. Set-up: species or system Balb/C mice. Conditions: mouse, in vivo.

In experiment [1], `N[C@@H]1CON=C1O` [D-cycloserine] registered an MIC of 5 µg/mL (≈ 49 µM).
Consider `NNC(=O)c1ccncc1` [isoniazid], for which the “bacterial burden (lung CFU) under treatment” value in experiment [2] was “similarly effective”. For the same compound, the MIC in experiment [1] is 0.03 µg/mL (≈ 0.219 µM).

(Values after patent US9273341B2, “Methods for treatment of bacterial infections” (THE JOHNS HOPKINS UNVIERSITY, priority 2010, dated 2016).)
